Laboratory results taken from US20240174648A1, “Small Molecule Compound” (Technoderma Medicines Pte Ltd, priority 2019, published 2024).

Columns and labels:
Format in all cases: biochemical
[1] = target: T1, JAK3 (Homo sapiens, UniProt P52333); experiment: JAK kinase inhibition assay (EZ Reader, peptide substrate phosphorylation) - JAK3; conditions: JAK3 kinase 1 nM; 8 concentration points, max 10 μM
T1 sequence (P52333 1-1124): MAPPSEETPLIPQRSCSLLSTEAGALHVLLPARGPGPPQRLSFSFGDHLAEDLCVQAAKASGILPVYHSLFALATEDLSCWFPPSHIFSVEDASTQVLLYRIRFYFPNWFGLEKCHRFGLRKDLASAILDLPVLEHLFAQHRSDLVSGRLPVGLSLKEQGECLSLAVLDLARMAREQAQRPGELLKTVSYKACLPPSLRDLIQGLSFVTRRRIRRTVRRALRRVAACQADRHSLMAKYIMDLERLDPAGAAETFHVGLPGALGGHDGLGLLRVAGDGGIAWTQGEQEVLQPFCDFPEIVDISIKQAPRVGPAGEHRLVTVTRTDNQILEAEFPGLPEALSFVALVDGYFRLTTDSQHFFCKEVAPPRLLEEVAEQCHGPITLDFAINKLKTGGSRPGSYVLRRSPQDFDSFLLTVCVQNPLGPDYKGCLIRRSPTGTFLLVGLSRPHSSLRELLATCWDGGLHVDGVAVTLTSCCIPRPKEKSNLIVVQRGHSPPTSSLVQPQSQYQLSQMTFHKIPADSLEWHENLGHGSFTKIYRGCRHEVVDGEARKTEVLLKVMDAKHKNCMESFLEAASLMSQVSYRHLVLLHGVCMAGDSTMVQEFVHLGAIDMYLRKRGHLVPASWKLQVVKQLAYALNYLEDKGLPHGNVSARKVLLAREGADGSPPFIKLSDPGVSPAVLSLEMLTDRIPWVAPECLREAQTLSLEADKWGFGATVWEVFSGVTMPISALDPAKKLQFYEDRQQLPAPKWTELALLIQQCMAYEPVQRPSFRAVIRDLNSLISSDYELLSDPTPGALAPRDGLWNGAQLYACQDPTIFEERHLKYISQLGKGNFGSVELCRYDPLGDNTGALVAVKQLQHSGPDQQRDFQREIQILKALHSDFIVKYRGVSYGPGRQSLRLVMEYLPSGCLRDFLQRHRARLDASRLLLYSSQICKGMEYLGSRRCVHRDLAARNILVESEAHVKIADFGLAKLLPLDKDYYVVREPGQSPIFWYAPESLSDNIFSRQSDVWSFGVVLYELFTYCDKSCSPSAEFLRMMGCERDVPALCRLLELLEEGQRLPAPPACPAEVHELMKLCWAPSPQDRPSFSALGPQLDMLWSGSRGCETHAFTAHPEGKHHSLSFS
From the text: (§1) Assay for Identifying Inhibitory Effects of Compounds on JAK Kinases
(§2) Janus kinases (JAK), including JAK1, JAK2, JAK3 and Tyk2, transduce a cytokine-mediated signal through a JAK-STAT pathway. The kinases are 120-140 kDa in size and have 7 determined homology regions: JH1 to JH7. JH1 is an important region for enzymatic activity and has typical characteristics of tyrosine kinases. Phosphorylation of tyrosine leads to a change in the conformation of JAK protein, thereby promoting binding of substrate. The JAK-STAT system includes three main parts: receptors penetrating a cell membrane, Janus kinases binding to the receptors, and signal transducers and activators of transcription (STAT) for transmitting signals to a nucleus and DNA. When cytokines bind to receptors, JAK phosphorylates the receptors and attracts STAT proteins. The STAT proteins are also phosphorylated and combined with one another to form dimers. The dimers enter the nucleus and bind to DNA, thereby leading to gene transcription.
(§3) EZ Reader from PerkinElmer can be used to detect the phosphorylation of polypeptide substrates catalyzed by kinases. The device is based on microfluidic techniques, and can directly detect fluorescently labeled substrates and products. The separation step is achieved by controlling the pressure and electric field strength in the microfluidic chip. In kinase assays, a product conversion ratio is usually controlled to be 20-30%. A biological test is used to identify inhibitory effects of compounds on JAKs.
(§4) Compound powder was dissolved in DMSO, sealed and stored in a freezer under −20° C. The in-house compound Ref1 was used as a positive control for JAK1, JAK2 and Tyk2 tests, and Ref2 was used as a positive control for JAK3 tests.
(§5) S2.8. Assay buffer: 20 mM HEPES buffer, pH 7.4, 10 mM magnesium chloride, 0.01% bovine serum albumin BSA, 0.0005% Tween-20 and 1 mM dithiothreitol solution.
(§6) S2.9. Stop buffer: 180 mM HEPES buffer, 20 mM ethylenediaminetetraacetic acid and 0.2% coating reagent 3.
(§7) S2.10. Separation buffer: 100 mM HEPES buffer, 10 mM ethylenediaminetetraacetic acid, 0.0005% Tween 20, 0.1% coating reagent 3 and 1% dimethyl sulfoxide.
The compound was dissolved in dimethyl sulfoxide and diluted to 10 mM concentration, a certain volume of solution was taken and diluted to 0.6 mM concentration, 10 μL of the 0.6 mM dilution was added to a 384-well microplate, and then was diluted 3-fold with a total of 8 concentration points. […]
Positive control (HPE1): Ref2, final concentration: 10 μM
(§8) Negative control (ZPE): DMSO, final content: 1.6%
(§9) Compounds: maximum final concentration: 10 μM; 3-fold dilution, 8 concentration points and 2 duplicates.
(§10) S4.1. 250 nL of the compound was added to each well of the assay microplate by using ECHO, and centrifuged at 1000 rpm for 1 minute.
(§11) S4.2. 5 μL of the assay buffer was added and agitated for a few seconds to fully dissolve the compound.
(§12) S4.3. 5 μL of 3× substrate solution and 5 μL of 3× kinase solution were added and centrifuged at 800 rpm for 1 minute.
(§13) S4.4. Final concentrations of JAK1, JAK2, JAK3 and Tyk2 kinases in the reaction system were 20 nM, 1 nM, 1 nM and 1 nM respectively.
(§14) S4.5. Incubation at room temperature, where kinases had time differences, and different batches of kinases had time differences.
(§15) S4.6. When 20%-30% of the reaction completed, 15 μL of stop buffer was added to stop the reaction, and centrifuged at 1000 rpm for 2 minutes.
(§16) S4.7. The microplates were placed on EZ Reader for reading.
(§17) S4.8. Readings on EZ Reader were calculated by using a peak height, where product conversion ratio (%)=product/(product+substrate)*100.
(§18) 5. Data Processing: IC50 calculation
(§19) A graphing software Xlfit was used to form a concentration curve of the test compound, and an IC50 value was calculated.
(§20) “A” means “≥10 μM”; “B” means “≥1 μM and <10 μM”; “C” means “≥0.1 μM and <1 μM”; and “D” means “<0.1 μM”.

[2] = target: JAK1 (Homo sapiens, UniProt P23458); experiment: JAK kinase inhibition assay (EZ Reader, peptide substrate phosphorylation) - JAK1; conditions: JAK1 kinase 20 nM; 8 concentration points, max 10 μM
Outline: (§21)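 Microfluidic mobility-shift detection of fluorescent peptide substrate phosphorylation, with JAK1 at 20 nM and JAK2, JAK3 and Tyk2 each at 1 nM final, in 20 mM HEPES pH 7.4, 10 mM MgCl2, 1 mM DTT. Reactions run at room temperature to 20–30% conversion, then EDTA-stopped. Compounds tested at 8 three-fold dilutions from 10 μM top final; IC50 from conversion curves.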

[3] = target: JAK2 (Homo sapiens, UniProt O60674); experiment: JAK kinase inhibition assay (EZ Reader, peptide substrate phosphorylation) - JAK2; conditions: JAK2 kinase 1 nM; 8 concentration points, max 10 μM
From the text: as §1, §2, §3, §4, §5, §6, §7
The compound was dissolved in dimethyl sulfoxide and diluted to 10 mM concentration, a certain volume of solution was taken and diluted to 0.6 mM concentration, 10 μL of the 0.6 mM dilution was added to a 384-well microplate, and then was diluted 3-fold with a total of 8 concentration points.
Positive control (HPE1): Ref1, final concentration: 10 μM […]
as §8, §9, §10, §11, §12, §13, §14, §15, §16, §17, §18, §19, §20

[4] = target: Tyk2 (Homo sapiens, UniProt P29597); experiment: JAK kinase inhibition assay (EZ Reader, peptide substrate phosphorylation) - Tyk2; conditions: Tyk2 kinase 1 nM; 8 concentration points, max 10 μM
Outline: as §21

Chain of Tyk2 (P29597 whole entry): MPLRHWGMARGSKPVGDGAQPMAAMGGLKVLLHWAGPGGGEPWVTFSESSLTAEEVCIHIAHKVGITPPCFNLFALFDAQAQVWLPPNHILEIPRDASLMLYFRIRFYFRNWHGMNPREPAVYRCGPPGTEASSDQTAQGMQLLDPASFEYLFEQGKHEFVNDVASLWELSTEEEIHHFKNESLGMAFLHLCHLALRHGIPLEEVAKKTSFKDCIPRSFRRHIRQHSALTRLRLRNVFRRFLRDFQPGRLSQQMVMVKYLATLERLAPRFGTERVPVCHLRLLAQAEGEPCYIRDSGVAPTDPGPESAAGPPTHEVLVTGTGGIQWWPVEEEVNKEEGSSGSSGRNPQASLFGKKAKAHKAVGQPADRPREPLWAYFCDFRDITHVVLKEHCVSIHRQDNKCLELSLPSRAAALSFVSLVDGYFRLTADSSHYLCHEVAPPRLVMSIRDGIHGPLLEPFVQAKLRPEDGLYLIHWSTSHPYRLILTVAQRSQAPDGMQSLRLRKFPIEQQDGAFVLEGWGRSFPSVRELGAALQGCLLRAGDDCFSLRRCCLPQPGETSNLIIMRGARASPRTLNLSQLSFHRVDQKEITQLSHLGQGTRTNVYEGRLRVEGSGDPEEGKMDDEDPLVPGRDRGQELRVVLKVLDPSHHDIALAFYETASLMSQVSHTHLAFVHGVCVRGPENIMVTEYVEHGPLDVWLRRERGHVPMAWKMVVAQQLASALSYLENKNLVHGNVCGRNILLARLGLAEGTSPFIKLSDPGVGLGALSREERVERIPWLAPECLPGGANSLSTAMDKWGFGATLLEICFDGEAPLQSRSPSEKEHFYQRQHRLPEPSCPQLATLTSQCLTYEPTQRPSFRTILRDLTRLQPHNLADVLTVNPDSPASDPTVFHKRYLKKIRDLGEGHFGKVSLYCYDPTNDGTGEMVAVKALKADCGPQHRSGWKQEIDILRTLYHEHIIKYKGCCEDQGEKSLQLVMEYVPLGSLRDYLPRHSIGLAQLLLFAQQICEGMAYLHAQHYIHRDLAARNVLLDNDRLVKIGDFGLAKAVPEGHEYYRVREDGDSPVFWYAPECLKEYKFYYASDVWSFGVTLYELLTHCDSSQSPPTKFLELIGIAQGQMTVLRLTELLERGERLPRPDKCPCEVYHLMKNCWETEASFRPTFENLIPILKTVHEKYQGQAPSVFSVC
Chain of JAK2 (O60674 whole entry): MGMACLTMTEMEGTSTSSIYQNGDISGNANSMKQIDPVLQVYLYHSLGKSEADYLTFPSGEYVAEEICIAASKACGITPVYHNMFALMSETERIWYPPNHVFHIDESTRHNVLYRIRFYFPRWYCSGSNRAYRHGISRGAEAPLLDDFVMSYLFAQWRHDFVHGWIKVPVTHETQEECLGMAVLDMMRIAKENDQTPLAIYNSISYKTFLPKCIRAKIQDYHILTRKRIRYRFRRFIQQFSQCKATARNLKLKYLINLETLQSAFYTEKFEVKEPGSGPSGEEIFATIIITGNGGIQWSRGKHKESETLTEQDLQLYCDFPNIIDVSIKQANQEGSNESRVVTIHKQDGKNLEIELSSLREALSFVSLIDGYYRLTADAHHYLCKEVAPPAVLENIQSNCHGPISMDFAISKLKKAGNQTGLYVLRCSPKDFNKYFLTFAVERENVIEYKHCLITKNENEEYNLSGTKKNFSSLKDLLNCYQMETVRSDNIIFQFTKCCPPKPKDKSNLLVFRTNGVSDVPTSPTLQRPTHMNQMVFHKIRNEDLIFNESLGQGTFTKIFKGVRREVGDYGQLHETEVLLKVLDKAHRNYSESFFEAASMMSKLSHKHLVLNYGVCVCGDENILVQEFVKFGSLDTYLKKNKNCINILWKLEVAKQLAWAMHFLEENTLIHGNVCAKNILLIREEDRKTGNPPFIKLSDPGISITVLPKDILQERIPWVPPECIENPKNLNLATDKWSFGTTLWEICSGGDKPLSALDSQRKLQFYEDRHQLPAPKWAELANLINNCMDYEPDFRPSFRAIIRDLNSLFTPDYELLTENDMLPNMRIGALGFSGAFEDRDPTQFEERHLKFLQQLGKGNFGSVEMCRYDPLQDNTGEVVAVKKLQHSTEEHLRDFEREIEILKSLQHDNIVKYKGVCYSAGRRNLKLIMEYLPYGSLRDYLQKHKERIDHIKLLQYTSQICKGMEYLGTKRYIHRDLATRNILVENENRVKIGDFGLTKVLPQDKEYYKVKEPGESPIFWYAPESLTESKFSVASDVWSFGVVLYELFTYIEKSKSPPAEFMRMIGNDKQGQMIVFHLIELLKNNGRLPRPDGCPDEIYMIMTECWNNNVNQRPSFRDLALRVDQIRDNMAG
Chain of JAK1 (P23458 whole entry): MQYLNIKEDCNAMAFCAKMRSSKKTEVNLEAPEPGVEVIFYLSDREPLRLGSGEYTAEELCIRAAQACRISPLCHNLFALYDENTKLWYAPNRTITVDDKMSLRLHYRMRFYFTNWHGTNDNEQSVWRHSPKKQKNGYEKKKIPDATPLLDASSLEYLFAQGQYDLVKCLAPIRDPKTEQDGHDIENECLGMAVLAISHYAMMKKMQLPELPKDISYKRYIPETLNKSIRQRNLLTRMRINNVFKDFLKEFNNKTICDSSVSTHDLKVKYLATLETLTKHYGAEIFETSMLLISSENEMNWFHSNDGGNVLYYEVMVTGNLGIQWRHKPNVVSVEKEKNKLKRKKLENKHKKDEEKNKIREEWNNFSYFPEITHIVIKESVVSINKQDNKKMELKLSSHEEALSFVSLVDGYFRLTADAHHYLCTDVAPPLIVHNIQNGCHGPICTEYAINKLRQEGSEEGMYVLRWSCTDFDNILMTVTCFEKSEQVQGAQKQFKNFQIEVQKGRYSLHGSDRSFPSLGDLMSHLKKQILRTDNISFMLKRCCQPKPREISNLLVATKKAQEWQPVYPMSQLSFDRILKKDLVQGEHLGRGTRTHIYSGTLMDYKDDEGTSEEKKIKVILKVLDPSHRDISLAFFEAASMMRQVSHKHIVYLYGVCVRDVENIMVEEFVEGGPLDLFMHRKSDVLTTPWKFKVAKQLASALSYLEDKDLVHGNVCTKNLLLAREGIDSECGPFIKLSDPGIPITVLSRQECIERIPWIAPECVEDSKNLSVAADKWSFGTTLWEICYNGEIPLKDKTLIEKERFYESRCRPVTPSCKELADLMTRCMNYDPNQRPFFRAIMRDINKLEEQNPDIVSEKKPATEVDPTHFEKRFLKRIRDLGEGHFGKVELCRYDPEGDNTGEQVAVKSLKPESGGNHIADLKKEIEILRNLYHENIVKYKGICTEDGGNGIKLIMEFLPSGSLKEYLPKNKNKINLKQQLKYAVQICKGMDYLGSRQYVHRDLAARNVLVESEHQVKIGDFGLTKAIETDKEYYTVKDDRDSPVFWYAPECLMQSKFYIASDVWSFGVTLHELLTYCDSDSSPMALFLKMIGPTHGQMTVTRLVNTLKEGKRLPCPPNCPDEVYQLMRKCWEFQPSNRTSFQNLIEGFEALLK

| SMILES | IC50 [1] [µM] | IC50 [2] [µM] | IC50 [3] [µM] | IC50 [4] [µM] |
| --- | --- | --- | --- | --- |
| COCC(=O)Nc1ccc(-c2ccnc(Nc3cnn(C)c3)n2)cc1 [TDM-180759, 2-methoxy-N-(4-(2-((1-methyl-1H-pyrazol-4-yl)amino)pyrimidin-4-yl)phenyl)acetamide] | ≥ 10 | 1 to 10 | 1 to 10 | 1 to 10 |
| Cn1cc(Nc2nccc(-c3ccc(NC(=O)C4(F)CC4)cc3)n2)cn1 [TDM-180803, 1-fluoro-N-(4-(2-((1-methyl-1H-pyrazol-4-yl)amino)pyrimidin-4-yl)phenyl)cyclopropane-1-carboxamide] | ≥ 10 | 0.1 to 1 | 0.1 to 1 | 0.1 to 1 |
| Cn1cc(Nc2nccc(-c3ccc(-n4nccc4C4CC4)cc3)n2)cn1 [TDM-180763, 4-(4-(5-cyclopropyl-1H-pyrazol-1-yl)phenyl)-N-(1-methyl-1H-pyrazol-4-yl)pyrimidin-2-amine] | ≥ 10 | 10 | 1 to 10 | 1 to 10 |
| Cn1cc(Nc2nccc(-c3ccc(CNCC#N)cc3)n2)cn1 [TDM-180761, 2-((4-(2-((1-methyl-1H-pyrazol-4-yl)amino)pyrimidin-4-yl)benzyl)amino)acetonitrile] | ≥ 10 | 0.1 to 1 | 1 to 10 | 0.1 to 1 |
| C=CCS(=O)(=O)Nc1ccc(-c2ccnc(Nc3cnn(C)c3)n2)cc1 [TDM-180844, N-(4-(2-((1-methyl-1H-pyrazol-4-yl)amino)pyrimidin-4-yl)phenyl)prop-2-ene-1-sulfonamide] | 1 to 10 | 0.1 to 1 | 0.1 to 1 | 0.1 to 1 |
| Cn1cc(Nc2nccc(-c3ccc(C(=O)NC4CC4(F)F)cc3)n2)cn1 (stereo not drawn) [TDM-180758, N-(2,2-difluorocyclopropyl)-4-(2-((1-methyl-1H-pyrazol-4-yl)amino)pyrimidin-4-yl)benzamide] | 1 to 10 | 0.1 to 1 | 1 to 10 | 1 to 10 |

The next lines start with the values.

| IC50 [1] [µM] | IC50 [2] [µM] | IC50 [3] [µM] | IC50 [4] [µM] | SMILES |
| --- | --- | --- | --- | --- |
| 1 to 10 | 0.1 to 1 | 0.1 to 1 | 0.1 to 1 | Cn1cc(Nc2nccc(-c3ccc(NC(=O)CC4CC4)nc3)n2)cn1 [TDM-180818, 2-cyclopropyl-N-(5-(2-((1-methyl-1H-pyrazol-4-yl)amino)pyrimidin-4-yl)pyridin-2-yl)acetamide] |
| 0.1 to 1 | < 0.1 | < 0.1 | < 0.1 | Cn1cc(Nc2nccc(-c3ccc(NC(=O)C4CC4(F)F)nc3)n2)cn1 (stereo not drawn) [TDM-180822, 2,2-difluoro-N-(5-(2-((1-methyl-1H-pyrazol-4-yl)amino)pyrimidin-4-yl)pyridin-2-yl)cyclopropane-1-carboxamide] |
| 1 to 10 | 0.1 to 1 | 0.1 to 1 | 0.1 to 1 | Cn1cc(Nc2nccc(-c3ccc(C(=O)NCC(F)(F)F)cc3)n2)cn1 [TDM-180748, 4-(2-((1-methyl-1H-pyrazol-4-yl)amino)pyrimidin-4-yl)-N-(2,2,2-trifluoroethyl)benzamide] |
| 1 to 10 | 0.1 to 1 | 0.1 to 1 | 0.1 to 1 | Cn1cc(Nc2nccc(-c3ccc(NC(=O)C(F)F)nc3)n2)cn1 [TDM-180849, 2,2-difluoro-N-(5-(2-((1-methyl-1H-pyrazol-4-yl)amino)pyrimidin-4-yl)pyridin-2-yl)acetamide] |
| 1 to 10 | 0.1 to 1 | 0.1 to 1 | 0.1 to 1 | Cn1cc(Nc2nccc(-c3ccc(NC(=O)C4CC4)nc3)n2)cn1 [TDM-180819, N-(5-(2-((1-methyl-1H-pyrazol-4-yl)amino)pyrimidin-4-yl)pyridin-2-yl)cyclopropylcarboxamide] |
| 0.1 to 1 | < 0.1 | < 0.1 | < 0.1 | Cn1cc(Nc2nccc(-c3ccc(NC(=O)C4CC4(F)F)cc3)n2)cn1 (stereo not drawn) [TDM-180757, 2,2-difluoro-N-(4-(2-((1-methyl-1H-pyrazol-4-yl)amino)pyrimidin-4-yl)phenyl)cyclopropane-1-carboxamide] |
| 1 to 10 | < 0.1 | < 0.1 | < 0.1 | Cn1cc(Nc2nccc(-c3ccc(NC(=O)C4CC4)cc3)n2)cn1 [TDM-180755, N-(4-(2-((1-methyl-1H-pyrazol-4-yl)amino)pyrimidin-4-yl)phenyl)cyclopropanecarboxamide] |
| 1 to 10 | < 0.1 | < 0.1 | 0.1 to 1 | Cn1cc(Nc2nccc(-c3ccc(NC(=O)CC(F)(F)F)cc3)n2)cn1 [TDM-180754, 3,3,3-trifluoro-N-(4-(2-((1-methyl-1H-pyrazol-4-yl)amino)pyrimidin-4-yl)phenyl)propanamide] |
| 0.1 to 1 | < 0.1 | 0.1 to 1 | 0.1 to 1 | Cn1cc(Nc2nccc(-c3ccc(NC(=O)CC(F)(F)F)nc3)n2)cn1 [TDM-180830, 3,3,3-trifluoro-N-(5-(2-((1-methyl-1H-pyrazol-4-yl)amino)pyrimidin-4-yl)pyridin-2-yl)propanamide] |
